{"source": "paper PMC10681007", "about": "“Targeted Degradation of XIAP is Sufficient and Specific to Induce Apoptosis in MYCN-overexpressing High-risk Neuroblastoma” (Cancer Research Communications, 2023)", "key": {"endogenous XIAP": {"molecular_target": "T1, endogenous XIAP (Homo sapiens, UniProt P98170)", "T1 construct": "knock-in a bioluminescent tag at endogenous loci of XIAP; endogenous in cells; host or cells: BE(2)-C and KELLY cells, CRISPR/Cas9 HiBiT knock-in, stably transfected with LgBiT vector (Promega)", "T1 sequence (P98170 whole entry)": "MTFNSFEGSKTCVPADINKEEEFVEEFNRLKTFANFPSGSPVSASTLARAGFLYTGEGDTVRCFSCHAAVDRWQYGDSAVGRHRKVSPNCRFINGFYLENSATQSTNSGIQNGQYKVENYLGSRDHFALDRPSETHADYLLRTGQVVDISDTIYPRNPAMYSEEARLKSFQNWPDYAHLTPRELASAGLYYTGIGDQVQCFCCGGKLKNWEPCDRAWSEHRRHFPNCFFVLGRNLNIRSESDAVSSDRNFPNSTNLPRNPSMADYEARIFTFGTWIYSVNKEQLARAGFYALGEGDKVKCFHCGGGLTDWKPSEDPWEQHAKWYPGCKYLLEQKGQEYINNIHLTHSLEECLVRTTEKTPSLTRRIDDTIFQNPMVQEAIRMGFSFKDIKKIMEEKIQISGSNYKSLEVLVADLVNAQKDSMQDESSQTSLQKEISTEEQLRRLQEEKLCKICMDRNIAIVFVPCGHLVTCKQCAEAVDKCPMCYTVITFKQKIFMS", "test": "Degradation of endogenous luciferase-tagged XIAP (HiBiT/LgBiT), real-time luminescence", "format": "cell-based", "conditions": "for DC50: 8 hours, read-out: DC50, degradation curve at 8h", "description": "B, Degradation profiles of endogenous XIAP in response to A4 or BV6 treatment of neuroblastoma cells, BE(2)-C (top) and KELLY (bottom). Cells were treated with increasing dose of A4 or BV6 and luminescence was measured continuously in real time for 2 hours. Luminescence values were normalized to DMSO vehicle control and degradation profiles were generated using GraphPad Prism. Values were expressed as mean ± SD of three independent experiments conducted in duplicates.\n(A) Degradation profiles of endogenous XIAP in response to A4 treatment of neuroblastoma cells, BE(2)-C and KELLY. (B) Degradation profiles of endogenous XIAP in response to BV6 treatment of neuroblastoma cells, BE(2)-C and KELLY. […] Cells were treated with increasing dose of A4 or BV6 and luminescence was measured continuously in real-time for 2 hours (A4) or 8 hours (BV6), respectively. Luminescence values were normalized to DMSO vehicle control and degradation profiles were generated using GraphPad Prism. Values were expressed as mean ± SD of three independent experiments."}, "[1]": {"tested_on": "neuroblastoma cells across the panel of cell lines", "test": "Cell viability, IC50 range across the panel", "format": "cell-based, Human", "conditions": "range over cell lines, doses 0–100 µmol/L, viability every 24 for 72 hours; read-out: IC50 against neuroblastoma cells across the panel of cell lines", "experimental": "Cell viability was measured in real time using RealTime-Glo MT Cell Viability Assay as according to manufacturer's instructions from Promega. Cells were seeded at 1 × 10^4 cells per well and treated with a range of doses of indicated antagonists, followed by continuous bioluminescence reading every 24 hours for 3 days using luminescent plate reader, Varioskan ([…] software). IC50 was determined using GraphPad Prism software. To determine their efficacy in neuroblastoma, a panel of neuroblastoma cell lines including neuroblastoma patient-derived cell lines and noncancerous normal tissue-derived cell lines were treated with increasing doses of each antagonist (0-100 μmol/L), followed by real-time measurement of cell viability every 24 for 72 hours. […] Supplementary Table S2; Fig. 2A). […] Fig. 2A)."}, "XIAP (NanoLuc-XIAP)": {"molecular_target": "T2, XIAP (NanoLuc-XIAP) (Homo sapiens, UniProt P98170)", "T2 construct": "host or cells: BE(2)-C and KELLY human neuroblastoma cells", "T2 sequence (P98170 whole entry)": "as above", "test": "NanoBRET XIAP target engagement assay", "format": "binding", "conditions": "NanoBRET tracer displacement, read-out: apparent intracellular affinity to XIAP (EC50)", "experimental": "To better understand the mechanisms by which these compounds target XIAP in high-risk neuroblastoma, binding interactions between the antagonists and XIAP were first determined in BE(2)-C and KELLY cells using a NanoBRET quantitative target engagement assay. […] As the BRET signal was not completely abolished even at saturating A4 concentrations, NMR was conducted to further examine the binding interaction between A4 and XIAP (Supplementary Fig. S2A and S2B).\nFIGURE 3 Binding and degradation of XIAP by A4 is necessary for targeting high-risk neuroblastoma cells. […] BRET signal was measured at 2 hours after treatment using a Tecan Infinite 200 Pro equipped with NanoBRET dual-filters (donor 460 nm and acceptor 618 nm) and determined via the formula (BRET ratio = values at 618 nm/values at 460 nm). […] Cells were treated with increasing dose of A4 or BV6 and luminescence was measured continuously in real time for 2 hours. Luminescence values were normalized to DMSO vehicle control and degradation profiles were generated using GraphPad Prism. Values were expressed as mean ± SD of three independent experiments conducted in duplicates. […] BRET signal was measured every 5 minutes for 6 hours after treatment using a Tecan equipped with NanoBRET dual-filters (donor 460 nm and acceptor 618 nm) and determined via the formula (BRET ratio = values at 618 nm/values at 460 nm). […]"}, "THLE3 (liver origin)": {"tested_on": "THLE3 (liver origin)", "test": "RealTime-Glo MT cell viability assay, noncancerous normal cells", "format": "cell-based, Human", "experimental": "(§1) Cell viability was measured in real time using RealTime-Glo MT Cell Viability Assay as according to manufacturer's instructions from Promega. Cells were seeded at 1 × 10^4 cells per well and treated with a range of doses of indicated antagonists, followed by continuous bioluminescence reading every 24 hours for 3 days using luminescent plate reader, Varioskan (SkanIT software). IC50 was determined using GraphPad Prism software.\n(§2) To determine their efficacy in neuroblastoma, a panel of neuroblastoma cell lines including neuroblastoma patient-derived cell lines and noncancerous normal tissue-derived cell lines were treated with increasing doses of each antagonist (0–100 µmol/L), followed by real-time measurement of cell viability every 24 for 72 hours.\n(§3) To evaluate this, noncancerous normal tissue-derived cell lines THLE3 and HS5 were utilized to evaluate toxicity and tolerability."}, "HS5 (bone marrow origin)": {"tested_on": "HS5 (bone marrow origin)", "test": "RealTime-Glo MT cell viability assay, noncancerous normal cells", "format": "cell-based, Human", "experimental": "as §1, §2, §3"}}, "note": "Like-named read-outs stand apart in the source and are kept apart here. Starred links: 1 amine or outer side, 2 acyl side, 3 side chain; linkers in the order of their positions; H or OH if unused. Positions of bridges follow the written chain, without caps; N, C: chain ends. Non-standard residues stand in square brackets, D forms with d. Residues, ends and D or L forms follow the SMILES beside them. Chains are numbered I, II in the order given. Hexamethylenediamine = C(CCCN[*:2])CCN[*:1]; Dip = N[C@H](C(=O)O)C(c1ccccc1)c1ccccc1; Chg = N[C@H](C(=O)O)C1CCCCC1; NMeA = CN[C@@H](C)C(=O)O", "data": [{"smiles": "CN[C@@H](C)C(=O)N[C@H](C(=O)N1CCC[C@H]1C(=O)N[C@H](C(=O)NCCCCCCNC(=O)[C@@H](NC(=O)[C@@H]1CCCN1C(=O)[C@@H](NC(=O)[C@H](C)NC)C1CCCCC1)C(c1ccccc1)c1ccccc1)C(c1ccccc1)c1ccccc1)C1CCCCC1", "note": "[BV6] (I: H-[NMeA][Chg]P[Dip] / II: H-[NMeA][Chg]P[Dip]; linker I:C-II:C via Hexamethylenediamine)", "values": [{"measurement": "degradation of XIAP", "setting": "endogenous XIAP; 2 hours' exposure, BE(2)-C and KELLY", "result": "minimal degradation of XIAP"}, {"measurement": "DC50", "setting": "endogenous XIAP; BE(2)-C", "result": 44.5, "unit": "µM"}, {"measurement": "DC50", "setting": "endogenous XIAP; KELLY", "result": 32, "unit": "µM"}, {"measurement": "IC50", "setting": "[1]", "result": "3 to 20", "unit": "µM"}, {"measurement": "EC50", "setting": "XIAP (NanoLuc-XIAP); BE(2)-C cells", "result": 0.21, "unit": "µM"}, {"measurement": "EC50", "setting": "XIAP (NanoLuc-XIAP); KELLY cells", "result": 0.3, "unit": "µM"}, {"measurement": "IC50", "setting": "THLE3 (liver origin); THLE3, 24 hours", "result": 11.3, "unit": "µM"}, {"measurement": "IC50", "setting": "THLE3 (liver origin); THLE3, 48 hours", "result": 6.8, "unit": "µM"}, {"measurement": "IC50", "setting": "THLE3 (liver origin); THLE3, 72 hours", "result": 5.2, "unit": "µM"}, {"measurement": "IC50", "setting": "HS5 (bone marrow origin); HS5, 24 hours", "result": 6.1, "unit": "µM"}, {"measurement": "IC50", "setting": "HS5 (bone marrow origin); HS5, 48 hours", "result": 4.4, "unit": "µM"}, {"measurement": "IC50", "setting": "HS5 (bone marrow origin); HS5, 72 hours", "result": 3.6, "unit": "µM"}]}]}
